According to US20100029599A1, “Indolylamides as modulators of the EP2 receptor” (BAYER SCHERING PHARMA AKTIENGESELLSCHAFT, priority 2008, published 2010):

Legend:
[1] = biological target: T1, EP2 subtype of the human PGE2 receptor (Homo sapiens, UniProt P43116); assay: cellular cAMP agonism assay; assay type: cell-based; conditions: without PGE2
T1 construct: host or cells: cells in a cell culture plate
Experimental: The binding of PGE2 to the EP2 subtype of the human PGE2 receptor induces activation of membrane-associated adenylate cyclases and leads to the formation of cAMP. In the presence of the phosphodiesterase inhibitor IBMX, cAMP which has accumulated due to this stimulation and been released by cell lysis is employed in a competitive detection method. In this assay, the cAMP in the lysate competes with cAMP-XL665 for binding of an Eu cryptate-labelled anti-cAMP antibody.
The two signals are measured in a suitable measuring instrument with a time lag, i.e. after the background fluorescence has declined.
The substance solutions (0.75 μl) introduced into an into an assay plate and 30% DMSO were dissolved in 16 μl of a KRSB+IBMX stimulation solution (1× Krebs-Ringer Bicarbonate Buffer; Sigma-Aldrich # K-4002; including 750 μM 3-isobutyl-1-methylxanthine Sigma-Aldrich # I-7018), and then 15 μl thereof were transferred into a media-free cell culture plate which has been washed with KRSB shortly beforehand.
After incubation at room temperature (RT; volume: ˜15 μl) for 60 minutes, the reaction was then stopped by adding 5 μl of lysis buffer and incubated at RT for a further 20 min (volume: ˜20 μl). The cell lysate was then transferred into a measuring plate and measured in accordance with the manufacturer's instructions (cyclic AMP kit Cisbio International # 62AMPPEC).

[2] = test system: cumulus-oocyte complexes (cumulus expansion); assay: Cumulus expansion assay in vitro; assay type: cell-based, mice; conditions: in competition with PGE2
Experimental: Folliculogenesis was induced in immature female mice (strain: CD1 (ICR) from Charles River) at an age of 14-18 days by a single dose (intraperitoneal) of 10 I.U. of PMSG (Pregnant Mare Serum Gonadotropin; Sigma G-4877, lot 68H0909). 47-50 hours after the injection, the ovaries were removed and the cumulus-oocyte complexes were removed. The cumulus complex is not yet expanded at this stage.
The cumulus-oocyte complexes were then incubated with prostaglandin E2 (PGE2) (0.3 μM), vehicle control (ethanol) or test substances for 20-24 hours. Medium: alpha-MEM medium with 0.1 mM IBMX, pyruvates (0.23 mM) glutamines (2 mM), pen/strep 100 IU/ml pen. and 100 μg/ml strep. and HSA (8 mg/ml). Cumulus expansion was then established through the division into four stages (according to Vanderhyden et al. Dev Biol. 1990 August; 140(2):307-317).

T1 sequence (P43116 whole entry): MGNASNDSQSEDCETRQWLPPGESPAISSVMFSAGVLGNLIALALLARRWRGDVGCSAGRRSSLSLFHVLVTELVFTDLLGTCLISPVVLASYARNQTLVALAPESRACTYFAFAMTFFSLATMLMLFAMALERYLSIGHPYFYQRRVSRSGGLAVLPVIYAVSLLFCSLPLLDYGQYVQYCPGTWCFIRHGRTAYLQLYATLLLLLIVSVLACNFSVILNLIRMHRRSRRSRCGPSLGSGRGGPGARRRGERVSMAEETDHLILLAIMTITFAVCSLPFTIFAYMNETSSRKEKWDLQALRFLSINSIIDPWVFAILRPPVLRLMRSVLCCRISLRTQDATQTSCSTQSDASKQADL

| SMILES | effect in the cellular agonism test [1] | suppression of cumulus expansion ([2]; 5 μM) | suppression of the expansion of the cumulus ([2]; 100-200 μM) |
| --- | --- | --- | --- |
| Cc1[nH]c2c(F)ccc(C)c2c1CCNC(=O)c1cc2ccc(C(=O)NCC(N)=O)cc2[nH]1 [Example 6, 2-N-[2-(7-fluoro-2,4-dimethyl-1H-indol-3-yl)ethyl]-6-N-carbamoylmethyl-1H-indole-2,6-dicarboxamide] | no inhibition | approx. 67% | – |
| CC(C)Oc1ccc2c(=O)c3cc(C(=O)O)ccc3oc2c1 [AH 6809, reference compound] | – | – | approx. 30% |
